In test [1] the test system is monocytes. As to the kind of experiment: Effect of enzyme inhibitors on peptide-induced monocyte chemotaxis. It counts as cell-based, human. The note with it: FIG. 10; for inhibition of MFYLPM-induced chemotaxis: 1 μM MFYLPM. On the procedure:
(§1) Chemotaxis assays of the peptide were performed using multiwell chambers (Neuroprobe Inc., Gaithersburg, Md.) (20). Briefly, the prepared isolated human monocytes were suspended in RPMI at a concentration of 1×10^6 cells/ml of serum-free RPMI, and 25 □ of the suspension were placed onto the upper well of a 96-well chemotaxis chamber that was separated by a […] filter with a 5 □ pore size (3 □ diameter pores not coated with polyvinylpyrrolidone for neutrophils) from peptides or an fMLF-containing lower well. After incubation for 2 hours (90 minutes for neutrophils) at 37° C., non-migrated cells were removed by scraping them out, and cells that migrated across the filter were dehydrated, fixed, and stained with hematoxylin (Sigma, St. Louis, Mo.). The stained cells in five randomly chosen high power fields (HPF) (400×) in that well were then counted (21). The numbers of migrated cells were determined by counting them in a high power field (400×). For a checkboard analysis, cells were re-suspended in RPMI containing various concentrations of the peptide just before transferring them to the upper wells as described before (22).
Monocytes were pretreated either with LY (LY294002, 50 μM), GFX (GF109203X, 5 μM), or PD (PD98059, 50 μM), or they remained untreated for the control After an incubation of the indicated periods (15 minutes for LY294002 and GF109203X, 60 minutes for PD98059), the cells were washed twice and used for chemotaxis assay. 25 □ of monocytes at 1×10^6 cells/ml were added to the upper wells and allowed to migrate for 2 hrs at 37° C. (humidified atmosphere; 5% CO2) toward each peptide (1 μM HFYLPM, 1 μM MFYLPM, or 10 nM HFYLPm) or medium. After fixing and staining of the membrane, the numbers of migrated cells were determined by counting them in a high power field (400×). The results are shown FIG. 10. The data are presented as means ±S.E. of three independent experiments each performed in duplicate. *P<0.01 versus medium treatment and †P<0.01 versus peptide treatment, respectively.

In test [2] the test system is monocytes. As to the kind of experiment: Effect of PTX on peptide-induced chemotactic migration in monocytes. As to conditions: FIG. 8, PTX preincubation 90 minutes. It counts as cell-based, human. On the procedure: as §1
Several extracellular signals including many chemoattractants activate phagocytic cells via pertussis toxin (PTX)-sensitive G-protein(s) (27-29). Therefore, the involvement of PTX-sensitive G-protein(s) on the peptide-induced monocyte activation was examined. Monocytes were preincubated with PTX (1 □/ml) or vehicle only for 90 minutes at 37° C. The cells were used for chemotaxis assay with HFYLPM (1 μM), MFYLPM (1 μM), HFYLPm (100 nM), and fMLF (100 nM). The numbers of migrated cells were determined by counting them in a high power field (400×). The results are illustrated in FIG. 8. The data of FIG. 8 are presented as means±S.E. of two independent experiments each performed in duplicate. *P<0.01 versus medium treatment and †P<0.01 versus peptide treatment, respectively.

Where [3] appears, read: LY294002 50 μM, GF109203X 5 μM, PD98059 50 μM, 10 nM HFYLPm.
[4] abbreviates: LY294002 50 μM, GF109203X 5 μM, PD98059 50 μM.

On to `CN(C)CCCn1cc(C2=C(c3c[nH]c4ccccc34)C(=O)NC2=O)c2ccccc21` [GF109203X], for which the “inhibition of HFYLPm-induced chemotaxis” value in test [1] (LY294002 50 μM, GF109203X 5 μM, 15 minutes pretreatment, 1 μM HFYLPM) is recorded as roughly 50%; in test [1] (setting [3]), “no effect”. Besides, in test [1] (setting [4]), the “inhibition of MFYLPM-induced chemotaxis” value is on record as “no effect”.

One may read the inhibition as the percentage by which the read-out fell short of the control. As to `O=c1cc(N2CCOCC2)oc2c(-c3ccccc3)cccc12` [LY294002], the “inhibition of HFYLPm-induced chemotaxis” value in test [1] (setting [3]) was “no effect”. Further, in test [1] (setting [4]), the “inhibition of MFYLPM-induced chemotaxis” value was “no effect”. In addition, in test [1] (Homo sapiens, Monocyte, LY294002 50 μM, GF109203X 5 μM, 15 minutes pretreatment, 1 μM HFYLPM), the inhibition at 50 µM is roughly 75%.

Turning to `COc1cccc(-c2cc(=O)c3ccccc3o2)c1N` [PD98059], the “inhibition of HFYLPm-induced chemotaxis” value in test [1] (setting [3]) was “almost complete inhibition”; in test [1] (PD98059 50 μM, 60 minutes pretreatment, 1 μM HFYLPM) it was “almost complete inhibition”. Further, in test [1] (setting [4]), the “inhibition of MFYLPM-induced chemotaxis” value was “almost complete inhibition”.

For the molecule pertussis toxin [PTX], the “inhibition of HFYLPm-induced monocyte chemotaxis” value in test [2] (HFYLPM 1 μM) and in test [2] (HFYLPm 100 nM) was “complete inhibition” in each case. Further, in test [2] (MFYLPM 1 μM), the “inhibition of MFYLPM-induced monocyte chemotaxis” value is given as “complete inhibition”. For the same molecule, in test [2] (fMLF 100 nM), the “inhibition of fMLF-induced monocyte chemotaxis” value is on record as “completely blocked”.
